Experimental data reported in patent publication US20210338558A1, “USE OF COLLAGEN BINDING DOMAINS TO DELIVER PRODUCTS TO SKIN” (Fabius Biotechnology, priority 2018, published 2021).
Values belong to the substance of their own block, whether it stands above or below them. Where no end group is shown, it is not given here.

Key:
native collagen = assay: binding of growth factors carrying the collagen binding decapeptide to collagen
Description: (§1) Studies with targeted peptides used the decapeptide sequence: Trp-Arg-Glu-Pro-Ser-Phe-Met-Ala-Leu-Ser (WREPSFMALS) (SEQ ID NO: 1). It was linked to either TGF-β or BMP-3 at the C-terminus of the corresponding growth factors.
Polypeptide growth factors, of the TGF-β family, and others, were constructed to contain, at the C-terminal end, a decapeptide with high affinity for collagen (Andrades, Nimni et al. 1996; Tuan, Cheung et al. 1996; Andrades, Han et al. 1999; Hall, Han et al. 2001; Han, Perelman et al. 2002; Romijn, Westein et al. 2003). This was intended to provide concentration of the growth factors where needed for maximum efficacy. In compositions and methods according to the present invention, this effect can be used for delivery of the skin care agent or cosmeceutical to the skin.
This is compared to the behavior of TGF-β without the collagen binding domain, which has poor affinity for collagen.

[1] = biological activity of the covalently linked growth factors; conditions: growth factor linked at its C-terminus to decapeptide WREPSFMALS
Description: as §1

collagen = conditions: by binding competition, on a molar basis, relative to intact VWF; cited from earlier work

binding affinity towards native collagen (native collagen; growth factor linked at its C-terminus to decapeptide WREPSFMALS): strong binding affinity
Substance: TGF-β with a collagen binding domain: TGF-β linked at the C-terminus to the decapeptide WREPSFMALS; genetically engineered fusion protein (FIG. 3)
dissociation of binding to collagen (native collagen; FIG. 4, urea): requires a high concentration of urea for dissociation
biological activities retained after linkage [1]: retained significant biological activities

affinity for collagen (native collagen; FIG. 4): poor affinity
Substance: TGF-β without the collagen binding domain: TGF-β lacking the collagen binding domain, comparator in FIG. 4 [reference compound]

Substance: WREPSFCALS [SEQ ID NO: 2]
binds more efficiently to collagen than the intact VWF (collagen): 20 times

Substance: WREPSFMALS [SEQ ID NO: 1]
binds more efficiently to collagen than the intact VWF (collagen): 20 times
